Measured values published in article PMC6752721 (Chembiochem : a European journal of chemical biology, 2019).
Where a SMILES comes first, the peptide text is derived from it. [ ]: non-standard residue; d: D form. The star is where a group is joined. Decanoyl = CCCCCCCCCC(=O)*; Orn = NCCC[C@H](N)C(=O)O; Dap = NC[C@H](N)C(=O)O; NHDecyl = CCCCCCCCCCN*

How the values were obtained:
HeLa cells [1] = assay: Cytosolic entry efficiency of naphthofluorescein; type: cell-based; conditions: 10% FBS, flow cytometry; for fold decrease in CPP activity (cellular entry efficiency) relative to peptide 4 / fold increase in CPP activity (cellular entry efficiency) relative to peptide 4: 5 μM NF-labeled peptide, 2 h
HeLa cells [2] = assay: MTT cytotoxicity assay; type: cell-based

Compound | fold decrease in CPP activity (cellular entry efficiency) relative to peptide 4 (HeLa cells [1]) | fold increase in CPP activity (cellular entry efficiency) relative to peptide 4 (HeLa cells [1]) | other results
CCCCCCCCCC(=O)NC[C@@H]1NC(=O)[C@H](CCC(N)=O)NC(=O)[C@@H](CCCNC(=N)N)NC(=O)[C@H](CCCNC(=N)N)NC(=O)[C@@H](CCCNC(=N)N)NC(=O)[C@H](CCCNC(=N)N)NC1=O [compound 9] (cyclo([Dap](Decanoyl)R[dR]R[dR]Q)) | ~ 3 fold |  | 
CCCCCCCCCC(=O)NC[C@@H]1NC(=O)[C@H](CCC(N)=O)NC(=O)[C@H](CCCNC(=N)N)NC(=O)[C@@H](CCCNC(=N)N)NC(=O)[C@H](CCCNC(=N)N)NC(=O)[C@@H](CCCNC(=N)N)NC1=O [compound 10] (cyclo([Dap](Decanoyl)[dR]R[dR]RQ)) | ~ 3 fold |  | 
CCCCCCCCCC(=O)NC[C@@H]1NC(=O)[C@H](CCC(N)=O)NC(=O)[C@H](CCCNC(=N)N)NC(=O)[C@H](CCCNC(=N)N)NC(=O)[C@H](CCCNC(=N)N)NC(=O)[C@H](C)NC1=O [compound 12] (cyclo(ARRRQ[Dap](Decanoyl))) | ~ 2 fold |  | 
CCCCCCCCCC(=O)NCCC[C@@H]1NC(=O)[C@H](CCC(N)=O)NC(=O)[C@H](CCCNC(=N)N)NC(=O)[C@H](CCCNC(=N)N)NC(=O)[C@H](CCCNC(=N)N)NC(=O)[C@H](CCCNC(=N)N)NC1=O [compound 15] (cyclo([Orn](Decanoyl)RRRRQ)) |  | 2 fold | 

Continued, in another order:

fold decrease in CPP activity (cellular entry efficiency) relative to peptide 4 (HeLa cells [1]) | fold increase in CPP activity (cellular entry efficiency) relative to peptide 4 (HeLa cells [1]) | Compound | other results
~5 fold |  | CCCCCCCCCC(=O)NC[C@@H]1NC(=O)[C@H](CCC(N)=O)NC(=O)[C@H](CCCNC(=N)N)NC(=O)[C@H](CCCNC(=N)N)NC(=O)[C@H](CCCNC(=N)N)NC(=O)[C@H](CCCNC(=N)N)NC(=O)[C@H](CCCNC(=N)N)NC1=O [peptide 14] | 
 | 1.3 fold | CCCCCCCCCC(=O)NCCCC[C@@H]1NC(=O)[C@H](CCC(N)=O)NC(=O)[C@H](CCCNC(=N)N)NC(=O)[C@H](CCCNC(=N)N)NC(=O)[C@H](CCCNC(=N)N)NC(=O)[C@H](CCCNC(=N)N)NC1=O [peptide 16] (cyclo(K(Decanoyl)RRRRQ)) | 
 | ~ 5 fold | CCCCCCCCCCNC(=O)C[C@@H]1NC(=O)[C@H](CCC(N)=O)NC(=O)[C@H](CCCNC(=N)N)NC(=O)[C@H](CCCNC(=N)N)NC(=O)[C@H](CCCNC(=N)N)NC(=O)[C@H](CCCNC(=N)N)NC1=O [peptide 17] (cyclo(D(NHDecyl)RRRRQ)) | reduction of cell viability (HeLa cells [2]; ≤25 μM peptide, not concentration-dependent): ~ 30%; effect on cell viability at higher concentrations (HeLa cells [2]; ≥50 μM peptide): significant loss of HeLa cell viability; fold more active than CPP12 (cellular entry efficiency) (HeLa cells [1]): 2.8 fold
